≈ marks a conversion by molar mass, not a printed value. Where two headings read alike, the source gives them in different places.
Experiments:
[1] = test system: VanA VRE E. faecalis BM 4166 and E. faecium ATCC BAA-2317; assay type: cell-based, Enterococcus faecalis, Enterococcus faecium; details: 10 μM added at 5 minutes
Description: The above bacterial solution was subjected to a subculture to obtain fresh mid-log phase bacterial cells (incubation time=6 hours). The bacterial suspension was diluted to a total volume of 7 mL with OD600=0.6.
After the cultured bacteria were harvested (3000 rpm, 4° C., 20 minutes), the white bacterial precipitate was washed and resuspended in 5 mM glucose and 5 mM HEPES buffer (1:1, 5.00 mL, pH=7.2).

[2] = test system: two VanA VRE strains (E. faecalis BM4166, E. faecium ATCC BAA-2317); assay: Resistance development assay, durability (serial passaging at 0.5×MIC); assay type: cell-based, Enterococcus faecalis, Enterococcus faecium; details: 50 passages
Description: The lowest concentration of antibiotic (in μg/mL) capable of eliminating cell growth in the wells is the reported MIC value.
A new MIC assay was performed with the same protocol above. This process was repeated for 50 passages, and the fold increase in MIC was determined after each passage.

[3] = test system: VanA E. faecium (ATCC BAA-2317); assay: In vitro antimicrobial microdilution assay (MIC); assay type: cell-based, Enterococcus faecium
[4] = test system: VanA E. faecalis (BM 4166); assay: In vitro antimicrobial microdilution assay (MIC); assay type: cell-based, Enterococcus faecalis
[5] = test system: VanA E. faecalis (ATCC BAA-2573); assay: In vitro antimicrobial microdilution assay (MIC); assay type: cell-based, Enterococcus faecalis
VanA E. faecium (TX2465) = assay: In vitro antimicrobial microdilution assay (MIC); assay type: cell-based, Enterococcus faecium
[6] = test system: VanA VRE E. faecalis (BM 4166); assay: Impact of added LTA, phosphate, POPE on antimicrobial activity (MIC); assay type: cell-based, Enterococcus faecalis
Description: When NaH2PO4 or POPE was used instead of LTA, 10% brain-heart infusion broth containing 0.002% Tween®-80 with 100 μg/mL NaH2PO4 or 100 μg/mL POPE was used as the culture medium used for serial dilution. When additional G3 (H2N^+(CH2)3NHC(NH2)═NH2^+.2TFA) or Mg^2+ was used, 10% brain-heart infusion broth containing 0.002% Tween®-80 with 100 μg/mL G3 or 100 μg/mL MgCl2 and 100 μg/mL lipoteichoic acid was used as the culture medium for serial dilution of study group, 10% brain-heart infusion broth containing 0.002% Tween®-80 with 100 μg/mL G3 was used as the culture medium for serial dilution of control group.

Row | SMILES | MIC, VanA E. faecium ATCC BAA-2317 [3] [µg/mL] | MIC, VanA E. faecalis BM 4166 [4] [µg/mL] | MIC, VanA E. faecalis ATCC BAA-2573 [5] [µg/mL] | MIC, VanA E. faecium TX2465 (VanA E. faecium (TX2465)) [µg/mL] | further results
1 | CN[C@H](CC(C)C)C(=O)N[C@H]1C(=O)N[C@@H](CC(N)=O)C(=O)N[C@H]2C(=O)N[C@H]3C(=O)N[C@H](C(=O)N[C@H](C(=O)N[C@@H](CCCNC(N)=O)C(=O)OC)c4cc(O)cc(O)c4-c4cc3ccc4O)[C@H](O)c3ccc(c(Cl)c3)Oc3cc2cc(c3OC2OC(CO)C(O)[C@H](O)C2O[C@H]2CC(C)(NCc3ccc(-c4ccc(Cl)cc4)cc3)[C@H](O)[C@H](C)O2)Oc2ccc(cc2Cl)[C@H]1O (some centres unmarked) [Compound 23, Cit(OMe)-CBP-vancomycin] | – | – | – | – | bacterial cell membrane permeabilization [1]: reduced bacteria cell permeabilization
2 | CN[C@H](CC(C)C)C(=O)N[C@H]1C(=O)N[C@@H](CC(N)=O)C(=O)N[C@H]2C(=O)N[C@H]3C(=O)N[C@H](C(=O)N[C@H](C(=O)N[C@@H](CCCNC(=N)N)C(=O)O)c4cc(O)cc(O)c4-c4cc3ccc4O)[C@H](O)c3ccc(c(Cl)c3)Oc3cc2cc(c3OC2OC(CO)C(O)[C@H](O)C2O[C@H]2CC(C)(NCc3ccc(-c4ccc(Cl)cc4)cc3)[C@H](O)[C@H](C)O2)Oc2ccc(cc2Cl)[C@H]1O (some centres unmarked) [Compound 21, Arg-CBP-vancomycin] | – | – | – | – | bacterial cell membrane permeabilization [1]: reduced bacteria cell permeabilization
3 | CCCCCCCCCC(=O)N[C@@H](Cc1c[nH]c2ccccc12)C(=O)N[C@H](CC(N)=O)C(=O)N[C@@H](CC(=O)O)C(=O)N[C@@H]1C(=O)NCC(=O)N[C@@H](CCCN)C(=O)N[C@@H](CC(=O)O)C(=O)N[C@H](C)C(=O)N[C@@H](CC(=O)O)C(=O)NCC(=O)N[C@H](CO)C(=O)N[C@@H]([C@H](C)CC(=O)O)C(=O)N[C@@H](CC(=O)c2ccccc2N)C(=O)O[C@@H]1C [daptomycin] | – | – | – | – | resistance acquisition on serial passaging [2]: raise resistance more rapidly and in a more pronounced manner
4 | CN[C@H](CC(C)C)C(=O)N[C@H]1C(=O)N[C@@H](CC(N)=O)C(=O)N[C@H]2C(=O)NC3C(=O)N[C@H](C(=O)N[C@H](C(=O)N[C@@H](CCCNC(=N)N)C(N)=O)c4cc(O)cc(O)c4-c4cc3ccc4O)[C@H](O)c3ccc(c(Cl)c3)Oc3cc2cc(c3OC2OC(CO)C(O)[C@H](O)[C@@H]2O[C@H]2CC(C)(N)[C@H](O)[C@H](C)O2)Oc2ccc(cc2Cl)[C@H]1O (some centres unmarked) [Compound 12, Arg(NH2)-vancomycin] | 4 (≈ 2.49 µM) | 16 (≈ 9.97 µM) | 4 (≈ 2.49 µM) | 8 (≈ 4.99 µM) | –
5 | CN[C@H](CC(C)C)C(=O)N[C@H]1C(=O)N[C@@H](CC(N)=O)C(=O)N[C@H]2C(=O)NC3C(=O)N[C@H](C(=O)N[C@H](C(=O)N[C@@H](CCCNC(=N)N)C(=O)OC)c4cc(O)cc(O)c4-c4cc3ccc4O)[C@H](O)c3ccc(c(Cl)c3)Oc3cc2cc(c3OC2OC(CO)C(O)[C@H](O)[C@@H]2O[C@H]2CC(C)(N)[C@H](O)[C@H](C)O2)Oc2ccc(cc2Cl)[C@H]1O (some centres unmarked) [Compound 10, Arg(OMe)-vancomycin] | 8 (≈ 4.94 µM) | 8 (≈ 4.94 µM) | 4 (≈ 2.47 µM) | 8 (≈ 4.94 µM) | –
6 | CN[C@H](CC(C)C)C(=O)N[C@H]1C(=O)N[C@@H](CC(N)=O)C(=O)N[C@H]2C(=O)NC3C(=O)N[C@H](C(=O)N[C@H](C(=O)NC(CNC(=N)N)CNC(=N)N)c4cc(O)cc(O)c4-c4cc3ccc4O)[C@H](O)c3ccc(c(Cl)c3)Oc3cc2cc(c3OC2OC(CO)C(O)[C@H](O)[C@@H]2O[C@H]2CC(C)(N)[C@H](O)[C@H](C)O2)Oc2ccc(cc2Cl)[C@H]1O (some centres unmarked) [Compound 14, DiG-vancomycin] | 1 (≈ 0.623 µM) | 8 (≈ 4.99 µM) | 2 (≈ 1.25 µM) | 4 (≈ 2.49 µM) | –
7 | CN[C@H](CC(C)C)C(=O)N[C@H]1C(=O)N[C@@H](CC(N)=O)C(=O)N[C@H]2C(=O)NC3C(=O)N[C@H](C(=O)N[C@H](C(=O)NCCCCNC(=N)N)c4cc(O)cc(O)c4-c4cc3ccc4O)[C@H](O)c3ccc(c(Cl)c3)Oc3cc2cc(c3OC2OC(CO)C(O)[C@H](O)[C@@H]2O[C@H]2CC(C)(N)[C@H](O)[C@H](C)O2)Oc2ccc(cc2Cl)[C@H]1O (some centres unmarked) [Compound 7, G4-vancomycin] | 4 (≈ 2.56 µM) | 16 (≈ 10.2 µM) | 4 (≈ 2.56 µM) | 16 (≈ 10.2 µM) | –
8 | CN[C@H](CC(C)C)C(=O)N[C@H]1C(=O)N[C@@H](CC(N)=O)C(=O)N[C@H]2C(=O)N[C@H]3C(=O)N[C@H](C(=O)N[C@H](C(=O)N[C@@H](CCCNC(=N)N)C(=O)OC)c4cc(O)c(CN[C@@H](CCCNC(=N)N)C(=O)OC)c(O)c4-c4cc3ccc4O)[C@H](O)c3ccc(c(Cl)c3)Oc3cc2cc(c3OC2OC(CO)C(O)[C@H](O)C2O[C@H]2CC(C)(N)[C@H](O)[C@H](C)O2)Oc2ccc(cc2Cl)[C@H]1O (some centres unmarked) [Compound 28, Arg(OMe)-Arg(OMe)^Ar-vancomycin] | – | – | – | – | MIC ([3]; Enterococcus faecium, ATCCBAA2317; read-out: MIC, VanA E. faecium ATCC BAA-2317): 2 µg/mL (≈ 1.1 µM); MIC ([4]; Enterococcus faecalis; read-out: MIC, VanA E. faecalis BM 4166): 8 µg/mL (≈ 4.4 µM); MIC ([5]; Enterococcus faecalis, ATCCBAA2573, read-out: MIC, VanA E. faecalis ATCC BAA-2573): 1 µg/mL (≈ 0.55 µM); MIC (VanA E. faecium (TX2465); Enterococcus faecium, read-out: MIC, VanA E. faecium TX2465): 8 µg/mL (≈ 4.4 µM)
9 | CC(=O)NC[C@H]1CN(c2ccc(N3CCOCC3)c(F)c2)C(=O)O1 [linezolid] | – | – | – | – | resistance acquisition on serial passaging [2]: raise resistance more rapidly and in a more pronounced manner
10 | N=C(N)NCCCN [G3^+, H2N(CH2)3NHC(═NH2)NH2^+] | – | – | – | – | MIC ([6]; E. faecalis BM 4166, POPE 100 μg/mL, read-out: MIC, +POPE): > 800 µg/mL; MIC ([6]; E. faecalis BM 4166, read-out: MIC, −POPE): > 800 µg/mL
11 | CN(C)c1cc(NC(=O)CNC(C)(C)C)c(O)c2c1C[C@H]1C[C@H]3[C@H](N(C)C)C(O)=C(C(N)=O)C(=O)[C@@]3(O)C(O)=C1C2=O [tigecycline] | – | – | – | – | resistance acquisition on serial passaging [2]: raise resistance more rapidly and in a more pronounced manner
12 | CN[C@H](CC(C)C)C(=O)N[C@H]1C(=O)N[C@@H](CC(N)=O)C(=O)N[C@H]2C(=O)N[C@H]3C(=O)N[C@H](C(=O)N[C@H](C(=O)N[C@@H](CCCNC(=N)N)C(=O)O)c4cc(O)cc(O)c4-c4cc3ccc4O)[C@H](O)c3ccc(c(Cl)c3)Oc3cc2cc(c3OC2OC(CO)C(O)[C@H](O)C2O[C@H]2CC(C)(N)[C@H](O)[C@H](C)O2)Oc2ccc(cc2Cl)[C@H]1O (some centres unmarked) [Compound 11, Arg-vancomycin] | – | – | – | – | MIC ([3]; Enterococcus faecium, ATCCBAA2317, read-out: MIC, VanA E. faecium ATCC BAA-2317): 63 µg/mL (≈ 39.2 µM); MIC ([4]; Enterococcus faecalis, read-out: MIC, VanA E. faecalis BM 4166): 63 µg/mL (≈ 39.2 µM)
13 | CN[C@H](CC(C)C)C(=O)N[C@H]1C(=O)N[C@@H](CC(N)=O)C(=O)N[C@H]2C(=O)NC3C(=O)N[C@H](C(=O)N[C@H](C(=O)NCCCCCCNC(=N)N)c4cc(O)cc(O)c4-c4cc3ccc4O)[C@H](O)c3ccc(c(Cl)c3)Oc3cc2cc(c3OC2OC(CO)C(O)[C@H](O)[C@@H]2O[C@H]2CC(C)(N)[C@H](O)[C@H](C)O2)Oc2ccc(cc2Cl)[C@H]1O (some centres unmarked) [Compound 8, G6-vancomycin] | 4 (≈ 2.52 µM) | 16 (≈ 10.1 µM) | 4 (≈ 2.52 µM) | 16 (≈ 10.1 µM) | –
14 | CN[C@H](CC(C)C)C(=O)N[C@H]1C(=O)N[C@@H](CC(N)=O)C(=O)N[C@H]2C(=O)NC3C(=O)N[C@H](C(=O)N[C@H](C(=O)NCCNC(=N)N)c4cc(O)cc(O)c4-c4cc3ccc4O)[C@H](O)c3ccc(c(Cl)c3)Oc3cc2cc(c3OC2OC(CO)C(O)[C@H](O)[C@@H]2O[C@H]2CC(C)(N)[C@H](O)[C@H](C)O2)Oc2ccc(cc2Cl)[C@H]1O (some centres unmarked) [Compound 6, G2-vancomycin] | 4 (≈ 2.61 µM) | 16 (≈ 10.4 µM) | 8 (≈ 5.22 µM) | 16 (≈ 10.4 µM) | –
15 | CN[C@H](CC(C)C)C(=O)N[C@H]1C(=O)N[C@@H](CC(N)=O)C(=O)N[C@H]2C(=O)NC3C(=O)N[C@H](C(=O)N[C@H](C(=O)N[C@@H](CCCNC(N)=O)C(=O)OC)c4cc(O)cc(O)c4-c4cc3ccc4O)[C@H](O)c3ccc(c(Cl)c3)Oc3cc2cc(c3OC2OC(CO)C(O)[C@H](O)[C@@H]2O[C@H]2CC(C)(N)[C@H](O)[C@H](C)O2)Oc2ccc(cc2Cl)[C@H]1O (some centres unmarked) [Compound 13, Cit(OMe)-vancomycin] | 31 (≈ 19.1 µM) | 63 (≈ 38.9 µM) | 16 (≈ 9.87 µM) | 63 (≈ 38.9 µM) | –

— patent US20230146239A1 (THE SCRIPPS RESEARCH INSTITUTE, priority 2020, published 2023)
